In PubChem BioAssay AID720495 (Broad Institute, 2013):
Values joined by “and” are separate entries in the source; they are usually repeats but may differ in a detail not shown here. Identical values can stand only once. Records with an inconclusive call do not appear. Active and inactive are the calls of the source. No rule for the calls is given here.

Target: Protein AF-9 (Homo sapiens) (UniProt P42568)
Experiment: AF9 binding to AF4 blockers, potency – biochemical, cherry-picked samples, plate reader, dose response (AID 720495)
Details: biochemical protein-protein interaction assay; for activity change, negative = inhibition: at 10 µM (top of the series)

Protein AF-9 (Homo sapiens), sequence (P42568 whole entry, looked up): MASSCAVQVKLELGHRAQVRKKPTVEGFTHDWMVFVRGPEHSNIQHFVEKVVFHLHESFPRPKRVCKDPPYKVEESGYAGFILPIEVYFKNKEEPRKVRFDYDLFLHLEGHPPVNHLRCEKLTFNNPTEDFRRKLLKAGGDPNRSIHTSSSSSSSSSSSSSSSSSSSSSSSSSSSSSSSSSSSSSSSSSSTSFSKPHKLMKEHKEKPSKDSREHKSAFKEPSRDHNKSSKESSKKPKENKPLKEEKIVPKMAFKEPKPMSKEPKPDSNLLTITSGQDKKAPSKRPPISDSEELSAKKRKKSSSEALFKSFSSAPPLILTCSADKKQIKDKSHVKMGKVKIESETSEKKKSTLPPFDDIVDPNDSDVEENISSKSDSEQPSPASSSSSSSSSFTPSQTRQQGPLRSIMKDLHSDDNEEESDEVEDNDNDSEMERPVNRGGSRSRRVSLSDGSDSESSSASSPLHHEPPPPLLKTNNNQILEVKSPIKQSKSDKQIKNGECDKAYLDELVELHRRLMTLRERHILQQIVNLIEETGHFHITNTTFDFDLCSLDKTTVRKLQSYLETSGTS

| SMILES | activity change, negative = inhibition | AC50 |
| --- | --- | --- |
| COc1cccc(-c2ccc3c(c2)[C@H]2[C@H](CCN2C(=O)C2CCCCC2)[C@@H](CO)N3)c1 | inactive | – |
| Oc1cc2c(cc1O)C1c3ccc(O)c(O)c3OCC1(O)C2 (stereo not drawn) | inactive | – |
| CC(C)(C)C1=CC(=Nc2ccccc2N)C=C(C(C)(C)C)C1=O | – | 761 nM |
| Cn1c(=O)cc2c3c(c(N4CCCCC4)ccc31)C(=O)c1ccccc1-2 | – | 8320 nM |
| NC(=O)C1CCN(C2=C(NS(=O)(=O)c3ccc(Br)cc3)C(=O)c3ccccc3C2=O)CC1 | inactive | – |
| O=C(NCCCN1CCCC1=O)C1CCN(S(=O)(=O)c2cccc(C(F)(F)F)c2)CC1 | inactive | – |
| CCN(CC)CCNc1cccc2sc3ccccc3c(=O)c12 | inactive | – |
| Oc1c(C(c2ccccn2)N2CCCCC2)cc(Cl)c2cccnc12 (stereo not drawn) | – | 1840 nM |
| NCC(O)c1cc(O)c(O)cc1F (stereo not drawn) | – | 6140 nM |
| COc1ccc(C2CC(=O)Oc3c(C(CCN4CCCC(C)C4)c4ccc(N(C)C)cc4)c(OC)cc(OC)c32)cc1 (stereo not drawn) | – | 680 nM |
| Nc1ccccc1Nc1cc(-c2ccccc2)nn1-c1cccc(Cl)c1 | inactive | – |
| COc1cc(OC)c2c(c1C(CCN1CCOCC1)c1ccc(N(C)C)cc1)OC(=O)CC2c1ccc(N(C)C)cc1 (stereo not drawn) | – | 10700 nM |
| CC(C)N1CCN(c2ccc(OC[C@H]3CO[C@](Cn4cncn4)(c4ccc(Cl)cc4Cl)O3)cc2)CC1 | inactive | – |
| CN(C)c1ccc(NC(=S)NC23CC4CC(CC(C4)C2)C3)cc1 | inactive | – |
| COc1ccc(NC2=C(NCCO)C(=O)c3ccccc3C2=O)cc1 | – | 4370 nM |
| O=C(NCCc1cccc(F)c1)C1CCCN(c2nc3ccccc3s2)C1 (stereo not drawn) | inactive | – |
| CN1CCN(C2CCN(Cc3ccc(O)c4ncccc34)CC2)CC1 | – | 2770 nM |
| C[C@H]1CCCCO[C@H](CN(C)Cc2ccc(Cl)c(Cl)c2)[C@@H](C)CN([C@@H](C)CO)C(=O)c2cc(N(C)C)ccc2O1 | – | 10600 nM |
| COc1cc(OC)c2c(-c3ccccc3)cc(=O)oc2c1C(CCN1CCCC(C)C1)c1ccc(N(C)C)cc1 (stereo not drawn) | – | 943 nM |
| CCCCCc1cc(=O)oc2c(C(CCN3CCCC3)c3ccc(N(C)C)cc3)c(OC)cc(OC)c12 (stereo not drawn) | – | 2310 nM |
| O=C(NN1C(=O)/C(=C/c2ccc(O)c(O)c2)SC1=S)c1ccccc1 | inactive | – |
| CCc1ccc(OCCNc2cc(N3CCNC(C)C3)ccc2[N+](=O)[O-])cc1 (stereo not drawn) | inactive | – |
| O=C1c2c(O)ccc(O)c2C(=O)c2c(NCCNCCO)ccc(NCCNCCO)c21 | – | 150 nM and 374 nM |
| CN1CCN(C(c2ccccn2)c2cc(Cl)c3cccnc3c2O)CC1 (stereo not drawn) | – | 2050 nM |
| CN(C)c1ccc2nc3ccc(=O)cc-3sc2c1 | – | 11300 nM |
| Cn1ccc2c(/C=C/c3ccc(F)cc3)cc3c(c21)C1CCC3C1 (stereo not drawn) | inactive | – |
| COc1ccccc1N1CCN(/N=C/C=C\c2ccccc2[N+](=O)[O-])CC1 | inactive | – |
| C#CCOCCOCCOCCNc1nc(N2CCN(C(=O)[C@H](CCCCN)n3cc([C@@H](N)[C@H](C)CC)nn3)CC2)nc(N2CCN(C(=O)[C@H](CCC(=O)O)n3cc([C@@H](N)CCCCN)nn3)CC2)n1 | inactive | – |
